We go through 2 compounds from US9604984B2, “5-chloro-2-difluoromethoxyphenyl pyrazolopyrimidine compounds, compositions and methods of use thereof” (Genentech, Inc., priority 2014, dated 2017).

Data set [1] addresses isolated recombinant JAK1 kinase domain (Homo sapiens (Human), UniProt P23458). As to the kind of experiment: JAK1 enzyme assay (Caliper LabChip, peptide phosphorylation). In kind it is biochemical. As to conditions: 25 μM ATP. How it is done: (§1) JAK Enzyme Assays were carried out as follows:
(§2) The activity of the isolated recombinant JAK1 and JAK2 kinase domain was measured by monitoring phosphorylation of a peptide derived from JAK3 ([…] fluorescently labeled on the N-terminus with 5-carboxyfluorescein) using the Caliper LabChip® technology (Caliper Life Sciences, Hopkinton, Mass.). […] Reactions were incubated at 22° C. in 384-well polypropylene microtiter plates for 30 minutes and then stopped by addition of 25 μL of an EDTA containing solution (100 mM HEPES buffer (pH 7.2), 0.015% Brij-35, 150 mM EDTA), resulting in a final EDTA concentration of 50 mM. After termination of the kinase reaction, the proportion of phosphorylated product was determined as a fraction of total peptide substrate using the Caliper LabChip® 3000 according to the manufacturer's specifications.

Data set [2] concerns the target isolated recombinant JAK2 kinase domain (Homo sapiens (Human), UniProt O60674). Put plainly: JAK2 enzyme assay (Caliper LabChip, peptide phosphorylation). In kind it is biochemical. As to conditions: 25 μM ATP. How it is done:
as §1, §2

Data set [3] in a line: Clearance assay: mouse intravenous (IV) clearance. Format: in vivo. The conditions noted are these: female BALB/c mice, single IV dose of 1 mg/kg. The source says:
In certain instances high systemic clearance of a drug substance may be of benefit. For example, in the treatment of pulmonary diseases it may be beneficial to have high drug concentrations in the lung, with lower concentrations in the bloodstream or peripheral organs. In such cases, it may be advantageous to administer a drug substance with high systemic clearance via the inhaled delivery route. This approach may maximize pharmacologic activity of the drug substance in the lung while minimizing the possibility of on-target toxicity elsewhere in the body. The functional groups appended to the 5-chloro-2-difluoromethoxyphenyl pyrazolopyrimidine scaffold affect systemic clearance.
Female BALB/c mice were obtained from Charles River Labs (Hollister, Calif. USA). Twelve animals were given a single IV dose of 1 mg/kg of compounds via the tail vein. A representative dose solution was prepared as follows: the compound was dissolved in a mixture of 5% dimethylsulfoxide (DMSO), 35% polyethylene glycol (PEG 400), and 60% water (v/v/v), respectively, and administered at a dosing volume of 5 mL/kg. Mice weighed approximately 20-25 g at the start of the study. […] PK data analysis was performed on mean plasma concentration-time data and PK parameters were determined by non compartmental methods using WinNonlin® Enterprise, version 5.2.1 (Pharsight Corporation; Mountain View, Calif.).

SMILES strings stand for the structures.

Chain of isolated recombinant JAK1 kinase domain (P23458 875-1153): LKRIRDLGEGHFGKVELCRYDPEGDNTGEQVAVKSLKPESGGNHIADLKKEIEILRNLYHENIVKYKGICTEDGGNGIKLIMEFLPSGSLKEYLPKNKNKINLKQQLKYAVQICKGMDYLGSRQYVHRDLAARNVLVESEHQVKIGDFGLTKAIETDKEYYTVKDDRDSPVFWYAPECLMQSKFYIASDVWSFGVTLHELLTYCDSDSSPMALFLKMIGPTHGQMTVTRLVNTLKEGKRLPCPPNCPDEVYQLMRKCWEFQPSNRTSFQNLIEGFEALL
Chain of isolated recombinant JAK2 kinase domain (O60674 849-1124): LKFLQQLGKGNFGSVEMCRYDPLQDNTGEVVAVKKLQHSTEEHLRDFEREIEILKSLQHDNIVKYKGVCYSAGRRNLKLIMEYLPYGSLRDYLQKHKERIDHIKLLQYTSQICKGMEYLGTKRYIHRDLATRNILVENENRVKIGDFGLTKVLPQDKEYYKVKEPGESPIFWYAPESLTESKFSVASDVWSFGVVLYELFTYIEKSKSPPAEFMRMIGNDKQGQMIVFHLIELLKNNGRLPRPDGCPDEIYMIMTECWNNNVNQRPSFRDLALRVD

Regarding `CNC(=O)[C@@H]1CCCN1CC1CCN(C(=O)Cn2cc(NC(=O)c3cnn4cccnc34)c(-c3cc(Cl)ccc3OC(F)F)n2)CC1` [Example 425, N-(3-(5-chloro-2-(difluoromethoxy)phenyl)-1-(2-(4-(((S)-2-(methylcarbamoyl)pyrrolidin-1-yl)methyl)piperidin-1-yl)-2-oxoethyl)-1H-pyrazol-4-yl)pyrazolo[1,5-a]pyrimidine-3-carboxamide], the Ki (usually the equilibrium dissociation constant of an inhibitor or competing ligand from its target) in data set [1] worked out at 0.6 nM; in data set [2] it was 1.64 nM.

On to `CC(C)(O)Cn1cc(NC(=O)c2cnn3cccnc23)c(-c2cc(Cl)ccc2OC(F)F)n1` [compound i], for which the “mouse IV clearance as % of mouse liver blood flow” value in data set [3] is 6 % of mouse liver blood flow.
